Experimental data taken from paper PMC5336612, “Therapeutic effects of different doses of polyethylene glycosylated porcine glucagon-like peptide-2 on ulcerative colitis in male rats” (BMC Gastroenterology, 2017).
“And” between values parts separate entries of the source, which are not always exact repeats. Equal entries are not always repeated. Marks after values point to notes of the source that are not given here. Where no end group is shown, it is not given here.

Key:
[1] = tested on: experimental rat model of ulcerative colitis (DSS); experiment: Growth performance of DSS colitis rats (body weight, intestinal and colonic length and weight); type: in vivo
Protocol: Animal studies were conducted in accordance with the guidelines of the Zhejiang Farm Animal Welfare Council of China and approved by the ethics committee of Zhejiang Academy of Agricultural Sciences. Thirty-five male Sprague–Dawley rats were allocated into five treatments: control, DSS, DSS + PEG–pGLP-2(L), DSS + PEG–pGLP-2(M) and DSS + PEG–pGLP-2(H). Each treatment was performed in seven replicates on one rat. The rats were housed in a plastic bottom, wire-lid cages, maintained on a 12 h: 12 h light–dark cycle and allowed to acclimatise to the animal facility for 3 days. Rats in control group received only water; other rats were fed with 5% (w/v) DSS through their drinking water for 6 days from the first day of experiment, followed by 2 days of water consumption. The rats from the DSS + PEG–pGLP-2(L), DSS + PEG–pGLP-2(M) and DSS + PEG–pGLP-2(H) groups were intraperitoneally administered with 12.5, 25 and 100 nmol/kg PEG–pGLP-2, respectively, in 0.3 mL of saline solution daily from day 1 to day 6 of the trial. The rats in the control and DSS groups were administered with the same volume of saline solution. During the experimental period, behaviour and body weight were monitored daily. On day 8, all rats were anesthetised and sacrificed to collect their intestinal sample.
Samples collection was prepared as previously described. The segment from the pylorus to the Trietz ligament and from the ileocecal valve to the rectum was considered the duodenum and colon, respectively; these segments were cut free from their mesentery and immediately placed on ice. The duodenum and colon were cleaned of luminal contents, weighed and measured with a balance and a ruler. The middle segments (1 cm) of duodenum and colon were fixed in 10% formalin for 48 h and embedded in paraffin using standard techniques for histology. One centimetre of the distal segment of colon was collected for RNA isolation, which was immediately placed in 1 mL of RNA locker.

Claudin-1 = experiment: Real-time PCR expression in colon; type: in vivo, rat; conditions: DSS colitis rats, compared with DSS group, RT-PCR
Protocol: (§1) Total RNA was isolated using RNAiso Plus kits following the manufacturers’ instructions. A 2 μL aliquot of the total RNA was used for first-strand cDNA synthesis using PrimeScript® RT-reagent Kit with gDNA Eraser. Real-time PCR was carried out with ABI plus one (Life Technologies, Carlsbad, CA, USA) using SYBR Premix Ex TaqTM. The primers used were in Table 1. RT-PCR analysis was performed with an ABI Step One Plus Real-Time PCR System (Applied Biosystems, Inc.) using SYBR® Premix Ex TaqTM. PCR reactions were performed in triplicate under the following conditions: 95 °C for 30 s; 40 cycles of 95 °C for 5 s and 60 °C for 30 s. Fluorescent data for quantification were collected at the end of each cycle. Melting curve analysis was performed at 55–95 °C to verify the single product generation at the end of the assay. Standard curves were generated based on the data obtained from the standards of the 2–2^−6 dilution series template. Standard curve analysis was performed by using Step One Software (v2.2, Applied Biosystems, Inc.). Data were normalised to GADPH using the 2^−△△Ct quantitation method.

IFN-γ = experiment: Real-time PCR expression in colon; type: in vivo, rat; conditions: DSS colitis rats; 25 nmol/kg i.p. daily d1-6 (M); compared with DSS group; RT-PCR
Protocol: as §1

IL-10 = experiment: Real-time PCR expression in colon; type: in vivo, rat; conditions: DSS colitis rats, compared with DSS group, RT-PCR
Protocol: as §1

IL-1 = experiment: Real-time PCR expression in colon; type: in vivo, rat; conditions: DSS colitis rats, compared with DSS group, RT-PCR
Protocol: as §1

IL-6 = experiment: Real-time PCR expression in colon; type: in vivo, rat; conditions: DSS colitis rats, among the five groups, RT-PCR
Protocol: as §1

IL-7 = experiment: Real-time PCR expression in colon; type: in vivo, rat; conditions: DSS colitis rats, compared with DSS group, RT-PCR
Protocol: as §1

Occludin = experiment: Real-time PCR expression in colon; type: in vivo, rat; conditions: DSS colitis rats, compared with DSS group, RT-PCR
Protocol: as §1

TNF-α = experiment: Real-time PCR expression in colon; type: in vivo, rat; conditions: DSS colitis rats, compared with DSS group, RT-PCR
Protocol: as §1

ZO-1 = experiment: Real-time PCR expression in colon; type: in vivo, rat; conditions: DSS colitis rats; 100 nmol/kg i.p. daily d1-6 (H); compared with DSS group; RT-PCR, 2^-ΔΔCt vs GADPH
Protocol: as §1

[2] = tested on: dipeptidyl peptidase-IV (DPP-IV); conditions: in DPP-IV in vitro; cited from earlier work
[3] = rat, in vivo; cited from earlier work
[4] = 5% DSS colitis, male SD rats, 12.5 nmol/kg i.p. daily d1-6 (L), day 8, mean ± SD
[5] = 5% DSS colitis, male SD rats, 25 nmol/kg i.p. daily d1-6 (M), day 8, mean ± SD
[6] = 5% DSS colitis, male SD rats, 100 nmol/kg i.p. daily d1-6 (H), day 8, mean ± SD
[7] = DSS colitis rats, 12.5 nmol/kg i.p. daily d1-6 (L), individual rats, raw data
[8] = DSS colitis rats, 25 nmol/kg i.p. daily d1-6 (M), individual rats, raw data
[9] = DSS colitis rats, 100 nmol/kg i.p. daily d1-6 (H), individual rats, raw data
[10] = 100 nmol/kg i.p. daily d1-6 (H)
[11] = 12.5 nmol/kg i.p. daily d1-6 (L)

## polyethylene glycosylated porcine glucagon-like peptide-2 (HGDGSFSDEMNTVLDNLATRDFINWLLHTKITDSL; also: mono-PEGylated with mPEG5k-SPA, site not given here; UniProt P01274 146-180, looked up, variant A2G) [PEG–pGLP-2]
[1]; [4]
  Body weight change: 21.45 ± 2.00^b %
  Colonic length: 14.74 ± 1.90^a cm
  Intestinal length: 94.50 ± 7.07 cm
[1]; [5]
  Body weight change: 21.46 ± 4.65^b %
  Colonic length: 14.48 cm
  Intestinal length: 99.10 ± 8.03 cm
[1]; [6]
  Body weight change: 20.63 ± 3.4^b %
  Colonic length: 13.42 cm
  Intestinal length: 99.56 ± 6.82 cm
[1]; [7]
  Colonic weight: 3.68 g and 1.94 g and 1.55 g and 1.6 g and 3.59 g and 2.4 g
  Intestinal length: 99.0 cm and 95.0 cm and 102.0 cm and 93.0 cm
  Intestinal weight: 8.25 g and 6.51 g and 7.68 g and 5.4 g and 8.63 g and 9.24 g
  final weight: 240 g and 217 g and 219 g and 157 g and 223 g
[1]; [8]
  Colonic weight: 3.22 g and 2.19 g and 2.7 g and 2.5 g and 3.3 g and 3 g
  Intestinal weight: 6 g and 6.93 g and 9 g and 8.4 g and 8.73 g and 7.5 g
  final weight: 220 g and 180 g and 246 g and 182 g and 230 g and 212 g
[1]; [9]
  Colonic length: 14.7 cm and 12.7 cm and 13.7 cm and 13.0 cm
  Colonic weight: 2.55 g and 2.37 g and 1.85 g and 2.2 g and 2.94 g
  Intestinal weight: 10 g and 7.62 g and 7.22 g and 8 g and 7.87 g and 9.26 g
  final weight: 221 g and 218 g and 214 g and 233 g and 219 g and 242 g
Claudin-1; 25 nmol/kg i.p. daily d1-6 (M)
  Expression of claudin-1 in colon: significantly (p < 0.05) decreased
Claudin-1; [10]
  Expression of claudin-1 in colon: significantly (p < 0.05) decreased
IFN-γ
  Expression of IFN-γ in colon: significantly (p < 0.05) decreased
IL-10; [11]
  Expression of IL-10 in colon: significantly (p < 0.05) decreased
IL-10; 25 nmol/kg i.p. daily d1-6 (M)
  Expression of IL-10 in colon: significantly (p < 0.05) decreased
IL-1; [11]
  Expression of IL-1 in colon: significantly (p < 0.05) decreased
IL-1; 25 nmol/kg i.p. daily d1-6 (M)
  Expression of IL-1 in colon: significantly (p < 0.05) decreased
IL-1; [10]
  Expression of IL-1 in colon: significantly (p < 0.05) decreased
IL-6; [11]
  Expression of IL-6 in colon: No significant differences
IL-6; 25 nmol/kg i.p. daily d1-6 (M)
  Expression of IL-6 in colon: No significant differences
IL-6; [10]
  Expression of IL-6 in colon: No significant differences
IL-7; [11]
  Expression of IL-7 in colon: significantly (p < 0.05) decreased
IL-7; 25 nmol/kg i.p. daily d1-6 (M)
  Expression of IL-7 in colon: significantly (p < 0.05) decreased
IL-7; [10]
  Expression of IL-7 in colon: significantly (p < 0.05) decreased
Occludin; 25 nmol/kg i.p. daily d1-6 (M)
  Expression of occludin in colon: significantly (p < 0.05) increased
Occludin; [10]
  Expression of occludin in colon: significantly (p < 0.05) increased
TNF-α; [11]
  Expression of TNF-α in colon: significantly (p < 0.05) decreased
TNF-α; 25 nmol/kg i.p. daily d1-6 (M)
  Expression of TNF-α in colon: significantly (p < 0.05) decreased
TNF-α; [10]
  Expression of TNF-α in colon: significantly (p < 0.05) decreased
ZO-1
  Expression of ZO-1 in colon: significantly (p < 0.05) increased
[2]
  half-life (t1/2) longer than that of pGLP-2: 16 fold
[3]
  half-life: 3.37 h
  t1/2: 3.38 h
